Results: patent US8901130B2, “Low hygroscopic aripiprazole drug substance and processes for the preparation” (Ostuka Pharmaceutical Co., Ltd., priority 2001, dated 2014)

Test: Hygroscopicity test (60° C./100% RH, 24 hours, Karl Fischer water content)
Format: physicochemical
Settings: for hygroscopicity (water content after exposure): left for 24 hours in a dessicator set at humidity 100%; for hygroscopicity (water content after exposure) / Moisture Content After 24 hrs (%): temperature 60° C.; for Moisture Content After 24 hrs (%): 24 hours in dessicator at humidity 100%; for Initial Moisture Content (%): before exposure to 60° C./100% humidity
Description: (7) Hygroscopicity Test Method
One g of the sample was accurately weighed, in a weighing bottle (diameter 5 cm), covered with kimwipes and left to rest in a 60° C./100% RH environment (water/dessicator). 24 hours later, the weighing bottle was removed, transferred to an environment of a room temperature and about 30% RH (magnesium chloride hexahydrate saturated water solution/dessicator) and left, to rest for 24 hours and the water content of the sample was measured by the Karl Fischer method.

| hygroscopicity (water content after exposure) | Moisture Content After 24 hrs (%) | Initial Moisture Content (%) | Compound |
| --- | --- | --- | --- |
| ≤ 0.4% |  |  | O=C1CCc2ccc(OCCCCN3CCN(c4cccc(Cl)c4Cl)CC3)cc2N1 [Anhydrous Aripiprazole Crystals B, aripiprazole] |
| ≤ 0.4% | 0.04 | 0.04 | O=C1CCc2ccc(OCCCCN3CCN(c4cccc(Cl)c4Cl)CC3)cc2N1 [Example 2, aripiprazole] |
| ≤ 0.4% | 0.02 | 0.02 | O=C1CCc2ccc(OCCCCN3CCN(c4cccc(Cl)c4Cl)CC3)cc2N1 [Example 3, aripiprazole] |
| ≤ 0.4% | 0.02 | 0.02 | O=C1CCc2ccc(OCCCCN3CCN(c4cccc(Cl)c4Cl)CC3)cc2N1 [Example 4, aripiprazole] |
| ≤ 0.4% | 0.04 | 0.04 | O=C1CCc2ccc(OCCCCN3CCN(c4cccc(Cl)c4Cl)CC3)cc2N1 [Example 5, aripiprazole] |
| ≤ 0.4% | 0.04 | 0.04 | O=C1CCc2ccc(OCCCCN3CCN(c4cccc(Cl)c4Cl)CC3)cc2N1 [Example 6, aripiprazole] |
| ≤ 0.4% | 0.03 | 0.04 | O=C1CCc2ccc(OCCCCN3CCN(c4cccc(Cl)c4Cl)CC3)cc2N1 [Example 7, aripiprazole] |
| ≤ 0.4% | 0.03 | 0.04 | O=C1CCc2ccc(OCCCCN3CCN(c4cccc(Cl)c4Cl)CC3)cc2N1 [Example 8, aripiprazole] |
| ≤ 0.4% | 0.01 | 0.03 | O=C1CCc2ccc(OCCCCN3CCN(c4cccc(Cl)c4Cl)CC3)cc2N1 [Example 9, aripiprazole] |
| no more than 0.4% | 0.05 | 0.05 | O=C1CCc2ccc(OCCCCN3CCN(c4cccc(Cl)c4Cl)CC3)cc2N1 [Example 10, aripiprazole] |
| ≤ 0.4% | 0.03 | 0.03 | O=C1CCc2ccc(OCCCCN3CCN(c4cccc(Cl)c4Cl)CC3)cc2N1 [Example 11, aripiprazole] |
| ≤ 0.4% | 0.03 | 0.04 | O=C1CCc2ccc(OCCCCN3CCN(c4cccc(Cl)c4Cl)CC3)cc2N1 [Example 12, aripiprazole] |
| ≤ 0.4% | 0.03 | 0.04 | O=C1CCc2ccc(OCCCCN3CCN(c4cccc(Cl)c4Cl)CC3)cc2N1 [Example 13, aripiprazole] |
| ≤ 0.4% | 0.09 | 0.06 | O=C1CCc2ccc(OCCCCN3CCN(c4cccc(Cl)c4Cl)CC3)cc2N1 [Example 14, aripiprazole] |
| ≤ 0.4% | 0.04 | 0.04 | O=C1CCc2ccc(OCCCCN3CCN(c4cccc(Cl)c4Cl)CC3)cc2N1 [Example 15, aripiprazole] |
| 3.28% | 3.28 | 0.04 | O=C1CCc2ccc(OCCCCN3CCN(c4cccc(Cl)c4Cl)CC3)cc2N1 [Reference Example 1, aripiprazole] |
| 1.78% | 1.78 | 0.04 | O=C1CCc2ccc(OCCCCN3CCN(c4cccc(Cl)c4Cl)CC3)cc2N1 [Reference Example 2, aripiprazole] |
